This assay has as its target MsepCSP8 (Mythimna separata, UniProt A0A1V1WC03). The assay is described as follows: Fluorescence competitive binding assay with 1-NPN as fluorescent probe. As to conditions: for IC50: displacement of 1-NPN; for Ki: calculated from IC50; for binding affinity to MsepCSP8 in words: discussion of Table 1, pH not stated; for Kd: dissociation constant, saturation and Scatchard plot. How it is done: The expressed protein was obtained in soluble form in the supernatant, and purification was accomplished using a Ni affinity chromatography column (GE Healthcare, Uppsala, Sweden). Bound protein was eluted by digestion with recombinant bovine enterokinase at 26°C for 15 h to remove the His-tag. Expression and purification were verified by 15% sodium dodecyl sulfate-polyacrylamide gel electrophoresis (SDS-PAGE), and protein concentration was measured as described by [Cao et al. (2017)]. Dialysis of purified protein was carried out in 30 mM Tris-HCl buffer [Tris(hydroxymethyl)aminomethane] at pH 7.4 and pH 5.0 before fluorescence binding assays, and protein was stored at -80°C until use.
Fluorescence competitive binding assays were performed to determine the binding affinity of MsepCSP8 for 56 ligands using N-phenyl-1-naphthylamine (1-NPN) as a fluorescent probe. Stock solutions of ligands were prepared in spectrophotometric-grade methanol. […] Mixtures of 1-NPN and protein were excited at 337 nm wavelength, and emission spectra were recorded from 360 to 600 nm using a fluorescence spectrophotometer (RF-5301PC Shimadzu, Kyoto, Japan). Binding of selected ligands with MsepCSP8 (1:1 protein:ligand stoichiometry) was evaluated using 1-NPN as a fluorescent probe, with the final concentration of the product ranging from 0 to 20 μM. […] Three independent measurements were made for all experiments. The binding affinity (Ki) of MsepCSP8 for all tested ligands was calculated based on IC50 values as follows:
Ki=IC50/(1 + [1−NPN]/K1–NPN)
where [1-NPN] is the free concentration of 1-NPN, and K1-NPN is the dissociation constant of the complex of MsepCSP8 and 1-NPN.

Structures are written as SMILES. Read-outs that look alike come from different tables or passages of the source.

Chain of MsepCSP8 (A0A1V1WC03 entry or part of it): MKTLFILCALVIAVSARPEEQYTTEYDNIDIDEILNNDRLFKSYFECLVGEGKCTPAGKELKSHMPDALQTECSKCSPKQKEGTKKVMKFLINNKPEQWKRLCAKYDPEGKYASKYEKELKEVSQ

As usually defined, the IC50 is the concentration that inhibits the measured activity by half. Broadly, the Ki is the dissociation constant of the complex between target and ligand, obtained from inhibition or displacement. As for `C=CC(C)(O)CCC=C(C)CCC=C(C)C` (mixture of isomers) [Nerolidol], the IC50 runs as follows: (IC50, pH 5.0) 15.4 µM; (IC50, pH 7.4) 15 µM. The Ki (Ki, pH 5.0) is 11.5 µM and the Ki (Ki, pH 7.4) was 10.5 µM.
On to `CC1=CCC2C(C1)C2(C)C` (single isomer, unassigned; (+)) [(+)-3-Carene], for which the “binding affinity to MsepCSP8 in words” value is “high binding affinities”. For the same compound, the Ki (pH 5.0, read-out: Ki) is 13.2 µM. Also, where the note is “pH 5.0, read-out: IC50”, the IC50 stood at 17.7 µM. Further, the Ki (pH 7.4, read-out: Ki) is 9.42 µM. The IC50 (pH 7.4, read-out: IC50) came out at 13.4 µM.
Consider `CC1(C)CCC[C@@]2(C)[C@@H]3CC4C([C@@H]31)C42C` (single isomer, unassigned; (+)) [(+)-Longicyclene], for which the Ki reads like this: (pH 5.0, read-out: Ki) 295 µM; (pH 7.4, read-out: Ki) 28.2 µM. Moreover, the 50% inhibitory concentration (IC50) stood at 395 µM (pH 5.0, read-out: IC50) and 40.1 µM (pH 7.4, read-out: IC50).
Take `C=C(C)C1CCC2(C)OC2C1` (single isomer, unassigned; (-)) [(–)-Limonene oxide]: the Ki is 35 µM (pH 5.0, read-out: Ki) and 12.3 µM (pH 7.4, read-out: Ki). Besides, the IC50 reads like this: (pH 5.0, read-out: IC50) 46.9 µM; (pH 7.4, read-out: IC50) 17.5 µM.
A word on the Kd: it is the equilibrium constant for the complex coming apart. Lower therefore signals a tighter complex. In the case of `c1ccc(Nc2cccc3ccccc23)cc1` [1-NPN, N-phenyl-1-naphthylamine, reference compound], the Kd (pH 5.0) turned out to be 2.93 µM and the Kd (pH 7.4) worked out at 2.41 µM.
Consider `C=CC(O)CCCCC` (stereo not drawn) [1-Octen-3-ol], for which the “binding affinity to MsepCSP8 in words” value is on record as “bound strongly”. Besides, under “IC50, pH 5.0”, the IC50 turned out to be 13.2 µM. The compound also had an IC50 (IC50, pH 7.4) of 8.25 µM. For the same compound, the Ki (Ki, pH 5.0) is 9.88 µM. Besides, the inhibition constant (Ki) (Ki, pH 7.4) was 5.79 µM.
Take `CCCCCC(C)O` (stereo not drawn) [2-Heptanol]: the IC50 (IC50, pH 5.0) was 25.6 µM and the IC50 (IC50, pH 7.4) amounted to 23.8 µM. Further, the Ki reads like this: (Ki, pH 5.0) 19.1 µM; (Ki, pH 7.4) 16.7 µM.
In the case of `CCC(C)C=O` (stereo not drawn) [2-Methylbutyraldehyde], the “binding affinity to MsepCSP8 in words” value is given as “high affinities”. The compound further yielded an IC50 (IC50, pH 5.0) of 21.4 µM. Moreover, the IC50 (IC50, pH 7.4) was found to be 13.8 µM. The Ki (Ki, pH 5.0) was 16 µM. Moreover, the Ki (Ki, pH 7.4) is 9.66 µM.
`CCCCCCCCCC(C)=O` [2-Undecanone]: the IC50 by setting is: (IC50, pH 5.0) 22.3 µM; (IC50, pH 7.4) 35.5 µM. For the same compound, the Ki reads like this: (Ki, pH 5.0) 16.6 µM; (Ki, pH 7.4) 24.9 µM.
In the same order, the values of `CCC(O)CC` [3-Pentanol] are 17.3 µM, 16 µM, 12.9 µM and 11.3 µM.
With `Cc1ccc(C(C)C)cc1` [4-Isopropyltoluene], the IC50 reads like this: (IC50, pH 5.0) 7.72 µM; (IC50, pH 7.4) 18 µM. Moreover, the Ki is, setting by setting: (Ki, pH 5.0) 5.76 µM; (Ki, pH 7.4) 12.6 µM.
For `CC1=CC[C@@H]2[C@@H]3[C@H]1[C@@]2(C)CCCC3(C)C` [(+)-α-longipinene], the “binding affinity to MsepCSP8 in words” value is reported as “high binding affinities”. Besides, the Ki (pH 5.0, read-out: Ki) was 10.8 µM. In addition, the IC50 (pH 5.0, read-out: IC50) came out at 14.4 µM. Also, the Ki (pH 7.4, read-out: Ki) was 9.86 µM. Also, the IC50 (pH 7.4, read-out: IC50) stood at 14.1 µM.
For `C=C1CC[C@@H]2C[C@H]1C2(C)C` [(R)-(+)-β-pinene] the same measures were “high binding affinities”, 19.7 µM, 26.4 µM, 9.73 µM and 13.9 µM.
For `CC1=CC(=O)[C@H]2C[C@@H]1C2(C)C` [(S)-(-)-verbenone] the same measures were “high binding affinities”, 16.1 µM, 21.5 µM, 9.27 µM and 13.2 µM.
The compound `C=C1CC[C@H]2O[C@]2(C)CC[C@@H]2[C@@H]1CC2(C)C` [(–)-Caryophyllene oxide] came in with an IC50 (IC50, pH 5.0) of 10.3 µM and an IC50 (IC50, pH 7.4) of 19.6 µM. Also, the Ki reads like this: (Ki, pH 5.0) 7.67 µM; (Ki, pH 7.4) 13.7 µM.
For `CC/C=C\CCO` [Cis-3-hexen-1-ol] the same measures were 29.8 µM, 21.4 µM, 22.3 µM and 15 µM.
For `CC/C=C\CCOC(C)=O` [Cis-3-hexenyl acetate] the same measures were 24.6 µM, 21 µM, 18.4 µM and 14.8 µM.
With `CCCCCCCCCC=O` [Decanal], the IC50 amounted to 31 µM (IC50, pH 5.0) and 20.4 µM (IC50, pH 7.4). In addition, the Ki was 23.2 µM (Ki, pH 5.0) and 14.3 µM (Ki, pH 7.4).
As for `CCCCCCCCCCCC=O` [Dodecyl aldehyde], the inhibition constant Ki was 27.5 µM (pH 5.0, read-out: Ki) and 17.3 µM (pH 7.4, read-out: Ki). Also, the IC50 is, setting by setting: (pH 5.0, read-out: IC50) 36.9 µM; (pH 7.4, read-out: IC50) 24.6 µM.
For the compound `CCC/C=C/COC(C)=O` [E-2-Hexen-1-ol acetate], the IC50 was determined as 62.8 µM (IC50, pH 5.0) and 14.6 µM (IC50, pH 7.4). The Ki is 46.9 µM (Ki, pH 5.0) and 10.2 µM (Ki, pH 7.4).
Turning to `CCCCCCCCCCCCCCCCCCCC` [Eicosane], the 50% inhibitory concentration (IC50) runs as follows: (IC50, pH 5.0) 46.3 µM; (IC50, pH 7.4) 48 µM. The Ki is 34.6 µM (Ki, pH 5.0) and 33.7 µM (Ki, pH 7.4).
As for `CCOC(C)=O` [Ethyl acetate], the IC50 reads like this: (IC50, pH 5.0) 29.2 µM; (IC50, pH 7.4) 67.3 µM. Moreover, the inhibitory constant (Ki) by setting is: (Ki, pH 5.0) 21.8 µM; (Ki, pH 7.4) 47.2 µM.
On to `CC12CCC(CC1)C(C)(C)O2` [Eucalyptol], for which the IC50 is, setting by setting: (IC50, pH 5.0) 88.1 µM; (IC50, pH 7.4) 25.2 µM. The Ki by setting is: (Ki, pH 5.0) 65.7 µM; (Ki, pH 7.4) 17.7 µM.
For `CCCCCCCCCCCCCCCC` [Hexadecane] the same measures were 10.3 µM, 14.8 µM, 7.65 µM and 10.4 µM.
Consider `CCCCCC` [Hexane], for which the “binding affinity to MsepCSP8 in words” value is “bound highly”. The compound also gave a 50% inhibitory concentration (IC50) (IC50, pH 5.0) of 26.3 µM. Also, the IC50 (IC50, pH 7.4) turned out to be 9.69 µM. In addition, the inhibition constant (Ki) (Ki, pH 5.0) is 19.6 µM. For the same compound, the Ki (Ki, pH 7.4) was 6.8 µM.
For the compound `C=CC(C)(O)CCC=C(C)C` (stereo not drawn) [Linalool], the IC50 runs as follows: (IC50, pH 5.0) 25 µM; (IC50, pH 7.4) 14.5 µM. In addition, the inhibitory constant (Ki) is 18.7 µM (Ki, pH 5.0) and 10.1 µM (Ki, pH 7.4).
`COC(=O)c1ccccc1` [Methyl benzoate]: the “binding affinity to MsepCSP8 in words” value was “bound highly”. For the same compound, the IC50 (IC50, pH 5.0) was determined as 21.2 µM. This compound had an IC50 (IC50, pH 7.4) of 12.5 µM. Also, where the note is “Ki, pH 5.0”, the Ki was 15.8 µM. For the same compound, the Ki (Ki, pH 7.4) is 8.8 µM.
Turning to `C=CC(=C)CCC=C(C)C` [Myrcene], the IC50 stood at 17.4 µM (IC50, pH 5.0) and 16.6 µM (IC50, pH 7.4). For the same compound, the Ki is 13 µM (Ki, pH 5.0) and 11.6 µM (Ki, pH 7.4).
In the same order, the values of `CCCCCCCCCCCCCCCCCCC` [Nonadecane] are 19.8 µM, 25.1 µM, 14.8 µM and 17.6 µM.
As for `CCCCCCCCC=O` [Nonanal], the “binding affinity to MsepCSP8 in words” value was “high affinities”. The compound further returned an IC50 (IC50, pH 5.0) of 14.9 µM. This compound came in with an IC50 (IC50, pH 7.4) of 12.7 µM. The Ki (Ki, pH 5.0) is 11.1 µM. Under “Ki, pH 7.4”, the inhibitory constant (Ki) is 8.92 µM.
On to `C=CC(C)=CCC=C(C)C` [Ocimene], for which the inhibitory constant (Ki) was 11.6 µM (pH 5.0, read-out: Ki) and 11.7 µM (pH 7.4, read-out: Ki). The IC50 is 15.6 µM (pH 5.0, read-out: IC50) and 16.7 µM (pH 7.4, read-out: IC50).
As to `CCCCCCCC` [Octane], the IC50 is 15.9 µM (IC50, pH 5.0) and 37 µM (IC50, pH 7.4). Moreover, the inhibition constant Ki (Ki, pH 5.0) was 11.8 µM and the Ki (Ki, pH 7.4) is 26 µM.

The record behind these values is paper PMC6052345, “Functional Analysis of the Chemosensory Protein MsepCSP8 From the Oriental Armyworm Mythimna separata” (Frontiers in Physiology, 2018).
